Ki data for eleven compounds are collected here from BindingDB's records for PubMed 2989489 (Eli Lilly, 1985).

Structures are written as SMILES. Where “and” joins values, the source holds several entries; their conditions need not be identical. Equal entries are not always repeated.

Broadly, the Ki is the equilibrium dissociation constant of an inhibitor or competing ligand from its target. Lower therefore signals tighter binding.

This experiment deals with Sigma non-opioid intracellular receptor 1 (Rattus norvegicus, UniProt Q9R0C9).
Chain of Sigma non-opioid intracellular receptor 1 (Q9R0C9 whole entry): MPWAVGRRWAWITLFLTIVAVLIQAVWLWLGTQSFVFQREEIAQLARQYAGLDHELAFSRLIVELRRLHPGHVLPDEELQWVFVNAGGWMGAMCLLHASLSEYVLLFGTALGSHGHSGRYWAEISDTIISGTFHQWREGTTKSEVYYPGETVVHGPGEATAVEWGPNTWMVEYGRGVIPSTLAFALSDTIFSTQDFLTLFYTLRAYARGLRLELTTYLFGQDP
With `CCC12CCN(CC3(O)CC3)C(Cc3ccc(O)cc31)C2(C)C` (stereo unspecified), the affinity corresponds to a Ki of 0.229 µM.
With `CCC1(c2ccccc2)OCC([C@H]2CCCCN2)O1` (stereo partly specified) the figure was 0.082 µM and 0.152 µM; with `c1ccc(C2(N3CCCCC3)CCCCC2)cc1`, 0.029 µM and 0.135 µM.
As for `c1ccc(C2(c3ccccc3)OCC(C3CCCCN3)O2)cc1` (racemic), the Ki is 0.023 µM and 0.141 µM.
To `CN[C@@]1(c2ccccc2Cl)CCCCC1=O` [2-(2-Chloro-phenyl)-2-methylamino-cyclohexanone(Ketamine)] belongs 0.44 µM and 1.45 µM; to `Oc1ccc2c(c1)C13CCCCC1C(C2)N(CC1CC1)CC3` (stereo unspecified) [17-(cyclopropylmethyl)-17-azatetracyclo[7.5.3.0^{1,10}.0^{2,7}]heptadeca-2(7),3,5-trien-4-ol], 0.226 µM and 0.287 µM; to `C[C@@H]1[C@@H]2Cc3ccc(O)cc3[C@@]1(C)CCN2CC1CC1` [(SSS)-12-Cyclopropylmethyl-13-methyl-12-aza-tricyclo[9.1.1.0*3,8*]trideca-3(8),4,6-trien-6-ol(cyclazocine)], 0.069 µM and 0.125 µM.
As for `CC1(C2(C)COC(c3ccccc3)(c3ccccc3)O2)CCCCN1` (stereo unspecified) [CAS_4792-18-1], the Ki is 5.5 µM and 1.9 µM.
To `Oc1noc2c1CCNC2` [CAS_64603-91-4] belongs more than 10 µM.
With `Cc1cccc(C2(N3CCCCC3)CCCCC2)c1` [PCP,m-OH] the figure was 0.008 µM and 0.077 µM.
To `C=CCN1CC[C@]2(C)c3cc(O)ccc3C[C@@H]1[C@@H]2C` [SKF 10,047 (-)] belongs 0.117 µM and 0.134 µM and 0.229 µM and 0.571 µM.
